In general, IC50 refers to the midpoint of a concentration-inhibition curve.

This assay deals with T1, human CCR5 (Homo sapiens, UniProt P51681).
T1 construct: expressed in transfected cells
Briefly: Inhibition test on the binding of RANTES to CCR5 (RANTES-induced transient increase of Ca ion in CCR5/CHO cells). The format is cell-based. The conditions noted are these: human CCR5 stably over-expressing CHO cells; 10 nM recombinant human RANTES; Ca2+ transient increase (Fura-2AM). The method, then:
Specifically, e.g., since CCR5 is a G protein-coupled seven transmembrane type receptor, an assay system in which the effect of RANTES on the transient increase of Ca ion induced via CCR5 is measured can be carried out as an assay system for screening a compound capable of inhibiting binding of RANTES to CCR5. Since both of the T cell tropic (X4) HIV and SDF-1 bind to CXCR4, similar idea can be considered.
(1) Isolation of Human CCR5 Gene
Human placental cDNA was prepared using Marathon cDNA amplification kit (Clontech). PCR primers hCCR5XbaI-F1: • 5′-[…]-3′ (SEQ ID NO:1) and hCCR5XbaI-R1: • 5′-[…]-3′ (SEQ ID NO:2) were designed based on the sequence of GenBank U54994. […]
The thus established human CCR5 stably over-expressing CHO cell (CCR5/CHO cell) was suspended in Ham's F-12 medium containing FBS (10%) and dispensed in […] portions into a 96 well plate. […] Transient increase in the intracellular Ca^2+ concentration induced by the human RANTES was measured using a Ca^2+ detector for 96 well use (Hamamatsu Photonics), and inhibition ratio (%) of the test compound was calculated by the following calculation formula. Inhibition ratio=(Ec−Ea)/Ec×100 • Ec: measured value of Ca^2+ transient increase by RANTES • Ea: measured value of Ca^2+ transient increase by RANTES when a test compound was added

Where a name gives a salt, the structure may show the parent alone.

T1 sequence (P51681 whole entry): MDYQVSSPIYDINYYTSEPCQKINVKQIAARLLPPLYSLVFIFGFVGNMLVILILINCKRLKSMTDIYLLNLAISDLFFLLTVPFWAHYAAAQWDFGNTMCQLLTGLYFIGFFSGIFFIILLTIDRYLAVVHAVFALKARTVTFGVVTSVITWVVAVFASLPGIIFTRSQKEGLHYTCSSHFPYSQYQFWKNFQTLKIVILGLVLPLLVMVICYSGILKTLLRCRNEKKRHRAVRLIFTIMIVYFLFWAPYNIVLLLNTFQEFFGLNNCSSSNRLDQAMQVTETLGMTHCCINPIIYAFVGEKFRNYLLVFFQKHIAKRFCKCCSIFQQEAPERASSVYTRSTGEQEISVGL

With `CCCCN1C(=O)[C@@H]2CSCN2C(=O)C12CCN(Cc1ccc(Oc3ccccc3)cc1)CC2` [Example 1(1), (3R)-1-butyl-2,5-dioxo-3,4-(2-thiapropano)-9-[(4-phenoxyphenyl)methyl]-1,4,9-triazaspiro[5.5]undecane hydrochloride], the IC50 came to 740 nM.
For `CCCCN1C(=O)C2(CCCC2)NC(=O)C12CCN(Cc1ccc(Oc3ccc(C(=O)NC)cc3)cc1)CC2` [Example 5, 1-butyl-2,5-dioxo-3,3-butano-9-[4-(4methylcarbamoylphenoxy)benzyl]-1,4,9-triazaspiro[5.5]undecane hydrochloride] the value was 12 nM.

The values above are taken from patent publication US20060019977A1, “Spiroheterocyclic derivative compounds and drugs comprising the compound as the active ingredient” (ONO PHARMACEUTICAL CO., LTD., priority 2002, published 2006).
